Data as given in PubChem BioAssay (NCI).
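Results reflect a 48-hour exposure of cells in 96-well plates to compound at five concentrations. GI50 is the concentration that inhibits growth by half. TGI: concentration producing complete growth inhibition.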

Legend:
Test in all cases: inhibition of tumour cell growth, NCI panel, 48 h
SW-620 colon = system: SW-620 colon
UACC-257 melanoma = system: UACC-257 melanoma
DU-145 prostate = system: DU-145 prostate
SNB-19 CNS = system: SNB-19 CNS
NCI-H460 lung = system: NCI-H460 lung
NCI-H522 lung = system: NCI-H522 lung
SK-MEL-2 melanoma = system: SK-MEL-2 melanoma
OVCAR-8 ovarian = system: OVCAR-8 ovarian
SK-OV-3 ovarian = system: SK-OV-3 ovarian
MDA-MB-231 breast = system: MDA-MB-231 breast
NCI-H23 lung = system: NCI-H23 lung
HCC-2998 colon = system: HCC-2998 colon
U251 CNS = system: U251 CNS
NCI/ADR-RES ovarian = system: NCI/ADR-RES ovarian
RXF 393 renal = system: RXF 393 renal
SR leukemia = system: SR leukemia

Structure (SMILES): COC(=O)C1=CC2C(=O)c3ccccc3C1(c1ccccc1)N2C1CCCCC1 (centres undefined)
- TGI (SW-620 colon): > 100 µM
- TGI (UACC-257 melanoma): 39 µM
- TGI (DU-145 prostate): > 100 µM
- TGI (SNB-19 CNS): > 100 µM
- TGI (NCI-H460 lung): 40.6 µM
- TGI (NCI-H522 lung): 82.3 µM
- TGI (SK-MEL-2 melanoma): 29.1 µM
- TGI (OVCAR-8 ovarian): > 100 µM
- TGI (SK-OV-3 ovarian): > 100 µM
- TGI (MDA-MB-231 breast): 42.8 µM
- TGI (NCI-H23 lung): > 100 µM
- TGI (HCC-2998 colon): 30.1 µM
- TGI (U251 CNS): 43.7 µM
- TGI (NCI/ADR-RES ovarian): > 100 µM
- TGI (RXF 393 renal): 24.6 µM

Structure (SMILES): Cc1cccc(N/C(=C(/C(Cl)=C(Cl)Cl)[N+](=O)[O-])n2nnc3ccccc32)c1
- TGI (SW-620 colon): 29.2 µM
- TGI (UACC-257 melanoma): 49.3 µM
- TGI (SNB-19 CNS): 34.3 µM
- TGI (NCI-H460 lung): 45.1 µM
- TGI (SK-MEL-2 melanoma): 36.3 µM
- TGI (OVCAR-8 ovarian): 31.1 µM
- TGI (SK-OV-3 ovarian): 49.9 µM
- TGI (MDA-MB-231 breast): 27.1 µM
- TGI (NCI-H23 lung): 34.7 µM
- TGI (HCC-2998 colon): > 100 µM
- TGI (U251 CNS): 26.9 µM
- TGI (NCI/ADR-RES ovarian): 49.4 µM

Structure (SMILES): COC(=O)c1ccccc1/C=C1\Cc2c(ccc3c2CCC3)C1=O
- TGI (SW-620 colon): > 100 µM
- TGI (UACC-257 melanoma): > 100 µM
- TGI (DU-145 prostate): > 100 µM
- TGI (SNB-19 CNS): > 100 µM
- TGI (SR leukemia): > 100 µM
- TGI (NCI-H460 lung): > 100 µM
- TGI (NCI-H522 lung): > 100 µM
- TGI (SK-MEL-2 melanoma): > 100 µM
- TGI (OVCAR-8 ovarian): > 100 µM
- TGI (NCI-H23 lung): > 100 µM
- TGI (HCC-2998 colon): > 100 µM
- TGI (U251 CNS): > 100 µM
- TGI (NCI/ADR-RES ovarian): > 100 µM
- TGI (RXF 393 renal): > 100 µM

Structure (SMILES): O=C1CC(Br)c2c(Br)sc(Br)c21 (centres undefined)
- TGI (SW-620 colon): 26.5 µM
- TGI (UACC-257 melanoma): 29.1 µM
- TGI (DU-145 prostate): 45.7 µM
- TGI (SNB-19 CNS): 76.2 µM
- TGI (NCI-H460 lung): 31.4 µM
- TGI (NCI-H522 lung): 24.4 µM
- TGI (SK-MEL-2 melanoma): 35.8 µM
- TGI (OVCAR-8 ovarian): 29.6 µM
- TGI (SK-OV-3 ovarian): 55.9 µM
- TGI (MDA-MB-231 breast): 35.1 µM
- TGI (NCI-H23 lung): 32 µM
- TGI (U251 CNS): 31.1 µM
- TGI (NCI/ADR-RES ovarian): > 100 µM
- TGI (RXF 393 renal): 32.9 µM

Structure (SMILES): COc1cc2c(cc1C)NC(=O)/C2=C/c1cccnc1
- TGI (SW-620 colon): 53.1 µM
- TGI (UACC-257 melanoma): 27.7 µM
- TGI (DU-145 prostate): 27.3 µM
- TGI (SNB-19 CNS): 32.1 µM
- TGI (NCI-H460 lung): 35.4 µM
- TGI (NCI-H522 lung): 33.4 µM
- TGI (SK-MEL-2 melanoma): 46.5 µM
- TGI (OVCAR-8 ovarian): > 58.7 µM
- TGI (SK-OV-3 ovarian): 34.3 µM
- GI50 (MDA-MB-231 breast): 9.27 µM
- TGI (MDA-MB-231 breast): 27.5 µM
- TGI (NCI-H23 lung): 24.8 µM
- TGI (HCC-2998 colon): 8.28 µM
- TGI (U251 CNS): > 52.5 µM
- TGI (NCI/ADR-RES ovarian): 42 µM
- TGI (RXF 393 renal): 25 µM

Structure (SMILES): O=C1Cc2c([nH]c3ccc(Br)cc23)-c2cc(Br)ccc2N1
- TGI (SW-620 colon): > 100 µM
- TGI (UACC-257 melanoma): > 100 µM
- TGI (DU-145 prostate): > 100 µM
- TGI (SNB-19 CNS): > 100 µM
- TGI (NCI-H460 lung): > 100 µM
- TGI (SK-MEL-2 melanoma): > 100 µM
- TGI (OVCAR-8 ovarian): > 100 µM
- TGI (SK-OV-3 ovarian): > 100 µM
- TGI (MDA-MB-231 breast): > 100 µM
- TGI (NCI-H23 lung): > 100 µM
- TGI (HCC-2998 colon): > 100 µM
- TGI (U251 CNS): > 100 µM
- TGI (NCI/ADR-RES ovarian): > 100 µM
